Experimental data as given in patent publication US8829003B2, “Compounds for treating proliferative disorders” (Changzhou Le Sun Pharmaceuticals Limited, priority 2010, dated 2014).

Tests used:
cancer cells = experiment: MTT proliferation assay; type: cell-based; settings: GI50 values only in FIG. 4
Excerpt: C.1. MTT Proliferation Assay.
The compounds from the examples above were subjected to a standard cellular proliferation assay using the method described previously in S. Wang et al. J Med Chem. 2004, 47, 1662-1675. The data analysis used program Deltasoft 3™ and Microsoft Excel to determine GI50 values (concentration of test compound which inhibits cell growth by 50%).

[1] = tested on: HCT-116 human colon cancer cells; experiment: Cell-cycle effects, DNA content by flow cytometry; type: cell-based; settings: HCT-116 cells, 0.62 μM, 48 hrs
Description: HCT-116 human colon cancer cells were treated with DMSO and A.12 at GI50 and […] respectively for a period of 48 hrs. The cells were analysed for their DNA content by flow cytometry.
This further indicates the efficacy of the compounds of the invention.

[2] = Mouse pharmacokinetics, IV and oral dosing; settings: mice
Description: For PK measurements male adult CD1 mice weighing 25-30 g (Charles River) are split into weight matched groups of 3 per group. IV dosed mice were restrained in individual restraining tubes, the tail was warmed in warm water to vasodilate the tail vein, and the IV bolus was then administered via the tail vein. Orally dosed mice were held at the scruff of the neck and dosed via a metal gavage directly into the stomach. Immediately after dosing mice are returned to their cage, plastic box cage with sawdust bedding, and food and water available. Blood samples were collected from the mouse under anaesthesia by cardiac puncture using a 1 mL syringe and 25 gauge needle at time zero and at intervals up to 8 h. Harvested blood was centrifuged at 7000×G for 2 minutes, and the plasma aspirated and frozen at 20° C. until analysis. Quantitative compound level analysis was carried out using LC-MS/MS methods. Pharmacokinetic data derived using PK Solutions 2.0, non-compartmental analysis. Oral bioavailability (% F) was calculated by taking the ratio of dose-normalised AUC values from oral versus parenteral dosing.

SMILES	inhibition of cell growth (cancer cells)	apoptosis (sub-G1 cells) [1]	effect on cell cycle progression [1]	pharmacokinetic properties compared with ON01910.Na ([2]; IV and PO)	oral bioavailability (F) ([2]; oral, 10 mg/kg)
COc1cc(OC)c(/C=C/S(=O)(=O)Cc2ccc(OC)c(N3CCCCC3)n2)c(OC)c1 [A.29, (E)-3-Methoxy-2-(piperidin-9-yl)-6-((2,4,6-trimethoxystyrylsulfonyl)methyl)pyridine]	effectively inhibit cell growth				
COc1cc(OC)c(/C=C/S(=O)(=O)Cc2cnc(OC)c(N)c2)c(OC)c1 [A.10, (E)-2-methoxy-5-((2,4,6-trimethoxystyrylsulfonyl)methyl)pyridin-3-amine]	effectively inhibit cell growth				
COc1cccc(OC)c1/C=C/S(=O)(=O)Cc1cnc(OC)c([N+](=O)[O-])c1 [A.17, (E)-5-((2,6-Dimethoxystyrylsulfonyl)methyl)-2-methoxy-3-nitropyridine]	effectively inhibit cell growth				
COc1cc(OC)c(/C=C/S(=O)(=O)Cc2cnc(OC)c(NS(C)(=O)=O)c2)c(OC)c1 [A.12, (E)-N-(2-methoxy-5-((2,4,6-trimethoxystyrylsulfonyl)methyl)pyridin-3-yl)methanesulfonamide]	effectively inhibit cell growth	increased sub-G1 cells	block of their cell cycle progression in G2/M phase	significantly improved pharmacokinetic properties	56%
CCOC(=O)CNc1cc(CS(=O)(=O)/C=C/c2c(OC)cc(OC)cc2OC)cnc1OC [A.13, (E)-ethyl 2-(2-methoxy-5-((2,4,6-trimethoxystyrylsulfonyl)methyl)pyridin-3-ylamino)acetate]	effectively inhibit cell growth				
